What all share (assay): MIC determination in BHI broth microdilution
What all share (assay type): cell-based
In general terms: Broth dilution looks for growth in wells or tubes with falling amounts of substance.

In one assay the test system is E. coli BAS 849. As to conditions: E. coli BAS849; BHI with 0.1% casamino acids, 18 hours at 37° C., OD600 ≧90% inhibition. As for the experimental part: (§1) In the Table below, MIC (minimum inhibitory concentration) values of certain compounds of the present invention are provided for the bacterial strains E. faecalis ATCC 29212; E. faecalis CL4877; E. faecium ATCC 49624; E. faecium CL4931; S. aures ATCC 29213; S. aureus ATCC 33591; and E. coli BAS 849. The MICs of the test compounds were determined using bacteria grown in brain heart infusion media (BHI) supplemented with 0.1% casamino acids. Logarithmically growing cells were diluted to approximately 5×10^5 CFU/ml and subjected to test compounds solubilized and serially diluted with DMSO. A 5% final DMSO concentration had no effect on cell viability or killing. After 18 hours at 37° C., the OD600 was determined by reading the ninety-six well microtiter plates on a microplate reader. For a given concentration, an MIC determination was made if: […]

In the next assay the test system is S. aureus ATCC 33591. As for the experimental part: as §1
The next assay concerns E. faecalis CL4877. The procedure:
(§2) The MICs of the test compounds were determined using bacteria grown in brain heart infusion media (BHI) supplemented with 0.1% casamino acids. Logarithmically growing cells were diluted to approximately 5×10^5 CFU/ml and subjected to test compounds solubilized and serially diluted with DMSO. […] After 18 hours at 37° C., the OD600 was determined by reading the ninety-six well microtiter plates on a microplate reader. For a given concentration, an MIC determination was made if: […]

The next assay concerns E. faecium ATCC 49624. As for the experimental part: as §2
A further assay concerns E. faecalis ATCC 29212. As for the experimental part:
as §2

The subject of another assay is S. aureus ATCC29213. As for the experimental part:
as §2

For the next assay, the system named is E. faecium CL4931. As for the experimental part: as §2
The mark [1] stands for this setting: S. aureus ATCC33591, BHI with 0.1% casamino acids, 18 hours at 37° C., OD600 ≧90% inhibition.
Setting [2] is: E. faecalis CL4877, BHI with 0.1% casamino acids, 18 hours at 37° C., OD600 ≧90% inhibition.
Where [3] appears, read: E. faecium ATCC49624, BHI with 0.1% casamino acids, 18 hours at 37° C., OD600 ≧90% inhibition.
The mark [4] stands for this setting: E. faecalis ATCC29212, BHI with 0.1% casamino acids, 18 hours at 37° C., OD600 ≧90% inhibition.
Setting [5] is: S. aureus ATCC29213, BHI with 0.1% casamino acids, 18 hours at 37° C., OD600 ≧90% inhibition.
Setting [6] is: E. faecium CL4931, BHI with 0.1% casamino acids, 18 hours at 37° C., OD600 ≧90% inhibition.
Setting [7] is: Staphylococcus aureus, ATCC33591, 18 h.
Where [8] appears, read: Enterococcus faecalis, CL4877, 18 h, read-out: MIC.
[9] abbreviates: Enterococcus faecium, ATCC49624, 18 h, read-out: MIC.
Setting [10] is: Enterococcus faecalis, ATCC29212, 18 h, read-out: MIC.
Where [11] appears, read: Staphylococcus aureus, ATCC29213, 18 h, read-out: MIC.
Setting [12] is: Enterococcus faecium, CL4931, 18 h, read-out: MIC.
Setting [13] is: Enterococcus faecalis, CL4877, 18 h.
The mark [14] stands for this setting: Enterococcus faecium, ATCC49624, 18 h.
[15] abbreviates: Enterococcus faecalis, ATCC29212, 18 h.
Where [16] appears, read: Staphylococcus aureus, ATCC29213, 18 h.
The mark [17] stands for this setting: Enterococcus faecium, CL4931, 18 h.

In brackets after ≈: the same amount, converted by molar mass. Where two headings read alike, the source gives them in different places.

A word on the MIC: it is the least concentration at which growth counts as inhibited. Take “6′-amino-3,4- dichloro- benzyloxylben zyl- vancomycin putrescine amide [TS0216]”: the MIC against E. coli BAS 849 turned out to be 3.12 µg/mL; in the assay on S. aureus ATCC 33591 (setting [1]), 3.12 µg/mL; in the assay with E. faecalis CL4877 (setting [2]) it was 3.12 µg/mL; in the assay on E. faecium ATCC 49624 (setting [3]) it was 3.12 µg/mL; with E. faecalis ATCC 29212 (setting [4]), 1.56 µg/mL; in the assay on S. aureus ATCC29213 (setting [5]) it was 3.12 µg/mL. Moreover, the MIC with E. faecium CL4931 (setting [6]) came to 6.25 µg/mL.
Consider “6′-amino- chlorobiphenyl methyl- vancomycin putrescine amide [TS0217]”, for which the MIC is 3.12 µg/mL with E. coli BAS 849; 3.12 µg/mL against S. aureus ATCC 33591 (setting [1]); 6.25 µg/mL with E. faecalis CL4877 (setting [2]); 1.56 µg/mL in the assay on E. faecium ATCC 49624 (setting [3]); 1.56 µg/mL against E. faecalis ATCC 29212 (setting [4]); 1.56 µg/mL with S. aureus ATCC29213 (setting [5]). This molecule came in with an MIC against E. faecium CL4931 (setting [6]) of 12.5 µg/mL.
As for “6′-azido-3,4- dichloro- benzyloxyben zyl- vancomycin putrescine amide [TS0220]”, the MIC worked out at 3.1250 µg/mL in the assay on S. aureus ATCC 33591 (setting [1]); 1.5625 µg/mL with E. faecalis CL4877 (setting [2]); 0.7813 µg/mL against E. faecium ATCC 49624 (setting [3]); 1.5625 µg/mL with E. faecalis ATCC 29212 (setting [4]); 1.5625 µg/mL in the assay on S. aureus ATCC29213 (setting [5]); 3.1250 µg/mL with E. faecium CL4931 (setting [6]).
Turning to `CN[C@H](CC(C)C)C(=O)N[C@H]1C(=O)N[C@@H](CC(N)=O)C(=O)N[C@H]2C(=O)N[C@H]3C(=O)N[C@H](C(=O)N[C@H](C(=O)O)c4cc(O)cc(O)c4-c4cc3ccc4O)[C@H](O)c3ccc(c(Cl)c3)Oc3cc2cc(c3O[C@@H]2O[C@H](CO)[C@@H](O)[C@H](O)[C@H]2O[C@H]2C[C@](C)(N)[C@H](O)[C@H](C)O2)Oc2ccc(cc2Cl)[C@H]1O` [EXT0002, vancomycin, reference compound], the MIC in the assay with E. coli BAS 849 is 0.78 µg/mL (≈ 0.538 µM); against S. aureus ATCC 33591 (setting [1]), 0.78 to 3.12 µg/mL; with E. faecalis CL4877 (setting [2]), above 25 µg/mL; with E. faecium ATCC 49624 (setting [3]), 0.25 to 0.39 µg/mL; with E. faecalis ATCC 29212 (setting [4]), 1.56 to 3.12 µg/mL; in the assay with S. aureus ATCC29213 (setting [5]), 1.56 µg/mL (≈ 1.08 µM). The same molecule registered an MIC against E. faecium CL4931 (setting [6]) above 25 µg/mL.
As for `CN[C@H](CC(C)C)C(=O)N[C@H]1C(=O)N[C@@H](CC(N)=O)C(=O)N[C@H]2C(=O)N[C@H]3C(=O)N[C@H](C(=O)N[C@@H](C(=O)NCCCCN)c4cc(O)cc(O)c4-c4cc3ccc4O)[C@H](O)c3ccc(c(Cl)c3)Oc3cc2cc(c3OC2OC(CO)C(O)C(O)C2OC2CC(C)(NCc3ccc(-c4ccc(Cl)cc4)cc3)C(O)C(C)O2)Oc2ccc(cc2Cl)[C@H]1O` (stereo partly drawn) [TS0221, chlorobipheny lmethyl- vancomycin putrescine amide], the MIC is 0.781 µg/mL (≈ 0.454 µM) against S. aureus ATCC 33591 (setting [7]); 12.5 µg/mL (≈ 7.27 µM) with E. faecalis CL4877 (setting [8]); 0.25 µg/mL (≈ 0.145 µM) in the assay on E. faecium ATCC 49624 (setting [9]); 1.56 µg/mL (≈ 0.908 µM) in the assay on E. faecalis ATCC 29212 (setting [10]); 1.56 µg/mL (≈ 0.908 µM) with S. aureus ATCC29213 (setting [11]); 6.25 µg/mL (≈ 3.63 µM) in the assay on E. faecium CL4931 (setting [12]).
Turning to `CN[C@H](CC(C)C)C(=O)N[C@H]1C(=O)N[C@@H](CC(N)=O)C(=O)N[C@H]2C(=O)NC3C(=O)N[C@H](C(=O)N[C@@H](C(=O)NCCCCN)c4cc(O)cc(O)c4-c4cc3ccc4O)[C@H](O)c3ccc(c(Cl)c3)Oc3cc2cc(c3OC2OC(CN=[N+]=[N-])C(O)C(O)C2OC2CC(C)(NCc3ccc(-c4ccc(Cl)cc4)cc3)C(O)C(C)O2)Oc2ccc(cc2Cl)[C@H]1O` (stereo partly drawn) [TS0222], the MIC in the assay with S. aureus ATCC 33591 (setting [7]) was determined as 3.12 µg/mL (≈ 1.79 µM); in the assay on E. faecalis CL4877 (setting [8]), 3.12 µg/mL (≈ 1.79 µM); in the assay on E. faecium ATCC 49624 (setting [9]), 0.25 µg/mL (≈ 0.143 µM); with E. faecalis ATCC 29212 (setting [10]) it was 0.781 µg/mL (≈ 0.448 µM); in the assay on S. aureus ATCC29213 (setting [11]) it was 1.56 µg/mL (≈ 0.895 µM); in the assay on E. faecium CL4931 (setting [12]) it was 3.12 µg/mL (≈ 1.79 µM).
As to `CN[C@H](CC(C)C)C(=O)N[C@H]1C(=O)N[C@@H](CC(N)=O)C(=O)N[C@H]2C(=O)NC3C(=O)N[C@H](C(=O)N[C@@H](C(=O)NCCN)c4cc(O)cc(O)c4-c4cc3ccc4O)[C@H](O)c3ccc(c(Cl)c3)Oc3cc2cc(c3OC2OC(CN=[N+]=[N-])C(O)C(O)C2OC2CC(C)(NCc3ccc(OCc4ccc(Cl)c(Cl)c4)cc3)C(O)C(C)O2)Oc2ccc(cc2Cl)[C@H]1O` (stereo partly drawn) [TS0256, 6′-azido-3,4-dichlorobenzyl oxylbenzyl-vancomycin 2-aminoethyl amide], the MIC in the assay on S. aureus ATCC 33591 (setting [7]) amounted to 1.56 µg/mL (≈ 0.876 µM); with E. faecalis CL4877 (setting [13]), 1.56 µg/mL (≈ 0.876 µM); with E. faecium ATCC 49624 (setting [14]), 0.39 µg/mL (≈ 0.219 µM); against E. faecalis ATCC 29212 (setting [15]) it was 3.12 µg/mL (≈ 1.75 µM); in the assay on S. aureus ATCC29213 (setting [16]) it was 1.56 µg/mL (≈ 0.876 µM); against E. faecium CL4931 (setting [17]), 6.25 µg/mL (≈ 3.51 µM).
`CN[C@H](CC(C)C)C(=O)N[C@H]1C(=O)N[C@@H](CC(N)=O)C(=O)N[C@H]2C(=O)NC3C(=O)N[C@H](C(=O)N[C@@H](C(=O)NCCN)c4cc(O)cc(O)c4-c4cc3ccc4O)[C@H](O)c3ccc(c(Cl)c3)Oc3cc2cc(c3OC2OC(CN)C(O)C(O)C2OC2CC(C)(NCc3ccc(OCc4ccc(Cl)c(Cl)c4)cc3)C(O)C(C)O2)Oc2ccc(cc2Cl)[C@H]1O` (stereo partly drawn) [TS0258, 6′-amino-3,4-dichlorobenzyl oxylbenzyl-vancomycin 2-aminoethyl amide]: the minimal inhibitory concentration (MIC) in the assay on S. aureus ATCC 33591 (setting [7]) came to 12.5 µg/mL (≈ 7.12 µM); with E. faecalis CL4877 (setting [13]) it was 25 µg/mL (≈ 14.2 µM); in the assay with E. faecium ATCC 49624 (setting [14]), 3.12 µg/mL (≈ 1.78 µM); against E. faecalis ATCC 29212 (setting [15]), 12.5 µg/mL (≈ 7.12 µM); in the assay with S. aureus ATCC29213 (setting [16]), 25 µg/mL (≈ 14.2 µM); in the assay on E. faecium CL4931 (setting [17]), 25 µg/mL (≈ 14.2 µM).
As for “N-methyl, N- chlorobiphenyl methyl-D- leucyl-6′-azido- chlorobiphenyl methyl vancomycin putrescine amide [TS0259]”, the MIC worked out at 1.56 µg/mL in the assay with S. aureus ATCC 33591 (setting [1]); 12.5 µg/mL in the assay with E. faecalis CL4877 (setting [2]); 1.56 µg/mL against E. faecium ATCC 49624 (setting [3]); 3.12 µg/mL in the assay with E. faecalis ATCC 29212 (setting [4]); 3.12 µg/mL with S. aureus ATCC29213 (setting [5]); 6.25 µg/mL in the assay on E. faecium CL4931 (setting [6]).

(Values after patent US6699836B2 (priority 1999, dated 2004).)
